# Results as given in patent US4956357A (priority 1984, dated 1990).
# Assays:
# gynecomastia [1] = conditions: treatment of gynecomastia; cited from earlier work
# gonadotropin = conditions: in vivo; cited from earlier work
# gynecomastia [2] = conditions: alcoholic solution applied to the skin; cited from earlier work
# [3] = cited from earlier work
# human androgen receptor = test system: human androgen receptor
# Excerpt: It is also believed that an androgen-action,rather than an estrogen action, acts to prevent breast enlargement.
# [4] = Plasma DHT after intramuscular DHT-hep; assay type: in vivo, human
# Method: (§1) Four pubertal boys, ages 14-16 years with gynecomastia which had lasted for more than 16 months and who all had breast diameters of more than 4 cm were studied. Their breast diameters ranged from 4.0 to 7.3 cm and breast areas from 13.5 to 41.4 cm^2 with mean breast area (±SEM) 24.3±4.1 cm^2.
# (§2) The patients were given 200 mg DHT-hep in sesame oil intramuscularly. […] Subsequent testing was at 2, 3 and 4 weeks, and then just prior to each dose of DHT-hep. […] In two boys, the dose of DHT-hep was increased to 400 mg. Treatment lasted 16 weeks. The patients were examined before each injection of DHT-hep and at two months and six months after therapy. Patients' unpaired, or when appropriate, paired tests were used to determine significant differences (p less than 0.05). Results were all expressed as mean±Standard Error.
# Solubility in sesame oil = assay type: physicochemical; conditions: organic solvent or mixture, 37° C., limit of solubility
# Method: (This was the limit of solubility of DHT-hep in sesame oil at 37° C. The warm sesame oil mixture was filtered in a laminar flow hood through a 0.20 micron filter into sterile injection vials. The vials were sealed, tested for sterility and pyroqens, and stored at room temperature.
# LH [5] = assay: Plasma LH after DHT-hep; assay type: in vivo, human
# Method: as §1, §2
# male external genitalia = assay: Use of DHT-hep as an androgen (development of male external genitalia); assay type: in vivo, human
# Excerpt: DHT-hep was given to two patients for the purpose of stimulating development of the male external genitalia. One was a person with hypogonadotrophic hypogonadism. […] The second patient was a child in early puberty with qynecomastia.
# testosterone = assay: Plasma testosterone after DHT-hep; assay type: in vivo, human; conditions: for mean plasma testosterone: before 283.8±87.5
# Method: as §1, §2
# LH [6] = assay: 24-hour urinary LH; assay type: in vivo, human; conditions: after 1 week of treatment; before 13.0±1.3
# Method: as §2
# FSH [7] = assay: Plasma FSH after DHT-hep; assay type: in vivo, human; conditions: for mean plasma FSH: before 190.5±50.7
# Method: as §1, §2
# human estrogen receptor = assay: Binding to estrogen receptor; conditions: heptanoate ester
# gynecomastia [8] = assay: Treatment of gynecomastia in pubertal boys (breast diameter and area); assay type: in vivo, human
# Method: as §1, §2
# estradiol = assay: Plasma estradiol after DHT-hep; assay type: in vivo, human; conditions: for mean estradiol level: before 23.8±3.2
# Method: as §1, §2
# FSH [9] = assay: 24-hour urinary FSH; assay type: in vivo, human; conditions: after 1 week of treatment; before 8.4±0.8
# Method: as §2
# [10] = another set of tests, 10 adolescent patients
# [11] = child in early puberty with gynecomastia, 4 months
# [12] = subject four, 200 mg every 3 wks, 2 mo. post treatment
# [13] = subject one, 400 mg every 3 wks, 2 mo. post treatment
# [14] = subject three, 200 mg every 2 wks, 2 mo. post treatment
# [15] = subject two, 400 mg every 3 wks, 2 mo. post treatment
# [16] = person, 200 mg/month i.m., 6 months
# [17] = injections every two to three weeks
# [18] = mean ± SE, two months after therapy
smiles,measurement,setting,value
C[C@]12CC[C@H]3[C@@H](CCC4=CC(=O)CC[C@@]43C)[C@@H]1CC[C@@H]2O [testosterone],breast size,gynecomastia [1],increased breast size
CCC(=O)O[C@H]1CC[C@H]2[C@@H]3CC[C@H]4CC(=O)CC[C@]4(C)[C@H]3CC[C@]12C [Dihydrotestosterone propionate],duration of action,gonadotropin,one-to three
same,gonadotropin suppression,gonadotropin,not effective in gonadotropin suppression
"C[C@]12CCC(=O)C[C@@H]1CC[C@@H]1[C@@H]2CC[C@]2(C)[C@@H](O)CC[C@@H]12 [DHT, dihydrotestosterone]",plasma DHT levels (systemic absorption),gynecomastia [2],elevations in its plasma levels
same,oral stability,[3]; oral,destroyed before reaching the circulatory system
same,half-life,[3]; parenteral,very short half-life
same,binding to human androgen receptor,human androgen receptor,high affinity
"CCCCCCC(=O)O[C@H]1CC[C@H]2[C@@H]3CC[C@H]4CC(=O)CC[C@]4(C)[C@H]3CC[C@]12C [DHT-hep, dihydrotestosterone heptanoate]",DHT levels,"[4]; injection, general statement",elevation
same,increase in plasma DHT,[4]; one week after injection of 200 mg DHT-hep,5-8 fold
same,solubility,Solubility in sesame oil,190 mg/mL
same,plasma LH change,LH [5]; [10],reduction
same,plasma LH,LH [5]; [11],suppressed
same,LH,"LH [5]; injection, general statement",suppression
same,further suppression of plasma LH,LH [5]; plasma LH low before treatment in three patients,not statistically significant
same,LH,LH [5]; [12],14 ng/mL
same,LH,"LH [5]; subject four, 200 mg every 3 wks, after 16 wks treatment, before 25",< 11 ng/mL
same,LH,LH [5]; [13],< 11 ng/mL
same,LH,"LH [5]; subject one, 400 mg every 3 wks, after 16 wks treatment, before less than 11",< 11 ng/mL
same,LH,LH [5]; [14],27 ng/mL
same,LH,"LH [5]; subject three, 200 mg every 2 wks, after 16 wks treatment, before less than 11",< 11 ng/mL
same,LH,LH [5]; [15],19 ng/mL
same,LH,"LH [5]; subject two, 400 mg every 3 wks, after 16 wks treatment, before 15",< 11 ng/mL
same,penile length change,male external genitalia; [11],penile length increased significantly
same,pubic and auxiliary hair,male external genitalia; [11],pubic and auxiliary hair increased
same,androgenic effects,male external genitalia; general statement,"enlargement of the male genitalia, growth of pubic hair, growth of facial hair, and increase in height and weight"
same,erections and ejaculations,male external genitalia; [16],erections and ejaculations were reported
same,muscle mass,male external genitalia; [16],significant increase in muscle mass
same,pubic hair,male external genitalia; [16],Pubic hair increased
same,penile diameter,"male external genitalia; person, hypogonadotrophic hypogonadism, 200 mg/month i.m., 6 months, from 1.5",2.5 cm
same,penile length,"male external genitalia; person, hypogonadotrophic hypogonadism, 200 mg/month i.m., 6 months, from 4 cm",8 cm
same,plasma testosterone change,"testosterone; DHT-hep i.m., four boys",statistically significant decreases
same,plasma testosterone change,testosterone; [10],reduction
same,plasma testosterone,testosterone; [11],suppressed
same,Testosterone,"testosterone; injection, general statement",suppression
same,maintenance of testosterone suppression,testosterone; [17],maintained
same,mean plasma testosterone,"testosterone; mean ± SE, 16 weeks",33.8 ± 3.2 ng/dL
same,plasma testosterone,testosterone; [18],214.9 ± 34.8 ng/dL
same,mean plasma testosterone,"testosterone; mean ± SE, two weeks",29.5 ± 3.3 ng/dL
same,time of rebound of testosterone to pretreatment levels,testosterone; post injection,four
same,time of maximal suppression of testosterone,"testosterone; post injection, all subjects",two
same,Testosterone,testosterone; [12],297 ng/dL
same,Testosterone,"testosterone; subject four, 200 mg every 3 wks, after 16 wks treatment, before 517",40 ng/dL
same,Testosterone,testosterone; [13],178 ng/dL
same,Testosterone,"testosterone; subject one, 400 mg every 3 wks, after 16 wks treatment, before 129",< 25 ng/dL
same,Testosterone,testosterone; [14],244 ng/dL
same,Testosterone,"testosterone; subject three, 200 mg every 2 wks, after 16 wks treatment, before 317",34 ng/dL
same,Testosterone,testosterone; [15],140 ng/dL
same,Testosterone,"testosterone; subject two, 400 mg every 3 wks, after 16 wks treatment, before 174",36 ng/dL
same,24-hour urinary LH,LH [6],7.4±3 IU/day
same,plasma FSH change,"FSH [7]; DHT-hep i.m., four boys",statistically significant decreases
same,plasma FSH change,FSH [7]; [10],reduction
same,FSH,"FSH [7]; injection, general statement",suppression
same,mean plasma FSH,"FSH [7]; mean ± SE, 16 weeks",40.3 ± 7.3 ng/mL
same,plasma FSH,FSH [7]; [18],121.5 ± 17.4 ng/mL
same,mean plasma FSH,"FSH [7]; mean ± SE, two weeks",58.8 ± 18.5 ng/mL
same,FSH,FSH [7]; [12],150 ng/mL
same,FSH,"FSH [7]; subject four, 200 mg every 3 wks, after 16 wks treatment, before 334",< 27 ng/mL
same,FSH,FSH [7]; [13],73 ng/mL
same,FSH,"FSH [7]; subject one, 400 mg every 3 wks, after 16 wks treatment, before 96",34 ng/mL
same,FSH,FSH [7]; [14],120 ng/mL
same,FSH,"FSH [7]; subject three, 200 mg every 2 wks, after 16 wks treatment, before 175",61 ng/mL
same,FSH,FSH [7]; [15],143 ng/mL
same,FSH,"FSH [7]; subject two, 400 mg every 3 wks, after 16 wks treatment, before 157",39 ng/mL
same,binding to human estrogen receptor,human estrogen receptor,not binding tightly
same,breast size change,gynecomastia [8]; [10],significant reduction in breast size
same,regression of breast tissue,"gynecomastia [8]; intramuscular injections, four adolescent boys",regression of breast tissue in all four adolescent boys
same,mean breast area,"gynecomastia [8]; mean ± SE, four boys, after 16 weeks of treatment, before 24.3±4.1, p less than 0.002",7.0±1.5 cm^2
same,increase in breast size on follow-up,"gynecomastia [8]; patient four, followed for nine months",no increase in breast size
same,decrease in breast area,"gynecomastia [8]; range of four boys, 16 weeks",66.6 to 77.5%
same,regrowth of breast tissue,gynecomastia [8]; six to nine months after therapy was discontinued,no regrowth of breast tissue
same,% Decrease in Breast Area,gynecomastia [8]; [12],70.1%
same,Breast Area,gynecomastia [8]; [12],4.0 cm^2
same,Breast Diameter,gynecomastia [8]; [12],2.3 cm
same,% Decrease in Breast Area,"gynecomastia [8]; subject four, 200 mg every 3 wks, after 16 wks treatment",70.1%
same,Breast Diameter,"gynecomastia [8]; subject four, 200 mg every 3 wks, after 16 wks treatment, before 4.0",2.3 cm
same,Breast Area,"gynecomastia [8]; subject four, 200 mg every 3 wks, after 16 wks treatment, before 13.5",4.0 cm^2
same,% Decrease in Breast Area,gynecomastia [8]; [13],75.5%
same,Breast Area,gynecomastia [8]; [13],6.0 cm^2
same,Breast Diameter,gynecomastia [8]; [13],2.6 cm
same,% Decrease in Breast Area,"gynecomastia [8]; subject one, 400 mg every 3 wks, after 16 wks treatment",75.2%
same,Breast Diameter,"gynecomastia [8]; subject one, 400 mg every 3 wks, after 16 wks treatment, before 5.6",2.7 cm
same,Breast Area,"gynecomastia [8]; subject one, 400 mg every 3 wks, after 16 wks treatment, before 24.6",6.1 cm^2
same,% Decrease in Breast Area,gynecomastia [8]; [14],77.5%
same,Breast Area,gynecomastia [8]; [14],4.0 cm^2
same,Breast Diameter,gynecomastia [8]; [14],2.3 cm
same,% Decrease in Breast Area,"gynecomastia [8]; subject three, 200 mg every 2 wks, after 16 wks treatment",77.5%
same,Breast Diameter,"gynecomastia [8]; subject three, 200 mg every 2 wks, after 16 wks treatment, before 4.8",2.3 cm
same,Breast Area,"gynecomastia [8]; subject three, 200 mg every 2 wks, after 16 wks treatment, before 17.7",4.0 cm^2
same,% Decrease in Breast Area,gynecomastia [8]; [15],69.9%
same,Breast Area,gynecomastia [8]; [15],12.6 cm^2
same,Breast Diameter,gynecomastia [8]; [15],3.3 cm
same,% Decrease in Breast Area,"gynecomastia [8]; subject two, 400 mg every 3 wks, after 16 wks treatment",66.6%
same,Breast Diameter,"gynecomastia [8]; subject two, 400 mg every 3 wks, after 16 wks treatment, before 7.3",4.2 cm
same,Breast Area,"gynecomastia [8]; subject two, 400 mg every 3 wks, after 16 wks treatment, before 41.4",13.9 cm^2
same,regrowth of breast tissue,gynecomastia [8]; two and six months after therapy was discontinued,No regrowth of breast tissue occurred in any subject
same,plasma estradiol change,"estradiol; DHT-hep i.m., four boys",statistically significant decreases
same,plasma estradiol change,estradiol; [10],reduction
same,Estradiol,"estradiol; injection, general statement",suppression
same,maintenance of estradiol suppression,estradiol; [17],maintained
same,mean estradiol level,"estradiol; mean ± SE, 16 weeks",12.8 ± 1.6 pg/mL
same,plasma estradiol,estradiol; [18],18.8 ± 2.5 pg/mL
same,mean estradiol level,"estradiol; mean ± SE, two weeks",10.8 ± 0.8 pg/mL
same,time of maximal suppression of estradiol,"estradiol; post injection, all subjects",two
same,Estradiol,estradiol; [12],22 pg/mL
same,Estradiol,"estradiol; subject four, 200 mg every 3 wks, after 16 wks treatment, before 30",< 10 pg/mL
same,Estradiol,estradiol; [13],12 pg/mL
same,Estradiol,"estradiol; subject one, 400 mg every 3 wks, after 16 wks treatment, before 16",< 10 pg/mL
same,Estradiol,estradiol; [14],18 pg/mL
same,Estradiol,"estradiol; subject three, 200 mg every 2 wks, after 16 wks treatment, before 28",15 pg/mL
same,Estradiol,estradiol; [15],23 pg/mL
same,Estradiol,"estradiol; subject two, 400 mg every 3 wks, after 16 wks treatment, before 21",16 pg/mL
same,residual estradiol levels,"estradiol; two of the four boys, LH and testosterone suppressed",significant estradiol levels persisted
same,estradiol suppression at 200 mg,"estradiol; two subjects, 200 mg dose",not adequately suppressed
same,24-hour urinary FSH,FSH [9],2.9±0.1 IU/day
